Series [1] has as its system mouse xenograft models. To be noted: mouse xenograft models (Shaheen et al., 1999); cited from earlier work.
The subject of series [2] is TG(VEGFR2:G-RCFP) transgenic zebrafish embryos. The series can be described thus: Angiogenesis inhibitor assay in TG(VEGFR2:G-RCFP) transgenic zebrafish embryos with fluorescent blood vessels. To be noted: for Intersegmental vessel formation: treated overnight from 13-somite stage (approximately 15 hpf); for Phenotypic response: cell wrapped over the compound's rows, in full: Dorsal aorta, caudal veins, present. Intersegmental vessels absent. Cranial vessels reduced in number.; for Concentrations of the compounds required to see these effects (complete block of intersegmental vessel formation) / Blood vessels in the head that form by angiogenesis: overnight application; for Blood vessels in the head that form by angiogenesis: 10 μM for SU5416 and 15 μM for SU6668; for Effect on pre-existing blood vessels: six-hour treatment at 24 hpf, well-established primary vasculature not affected; for Migration pattern of VEGFR2 expressing cells toward the midline: treated embryos at the 18 somite stage, versus control.

For series [3] the following is noted: patients treated in clinical trials; cited from earlier work.
Series [4] has as its system vascular endothelial cell. To be noted: in vitro; cited from earlier work.
For series [5], the system named is zebrafish blood vessels. To be noted: Chan et al., 2002; cited from earlier work.
Setting [6] is: 10 μM, stage at treatment 6 hpf, time treated 24 h.
[7] abbreviates: 10 μM, stage at treatment 15 hpf, time treated 24 h.
Where [8] appears, read: 10 μM, stage at treatment 24 hpf, time treated 6 h.

The values that follow come from US20040143865A1, “Transgenic zebrafish models for angiogenesis” (priority 2002, published 2004).

Structures are written as SMILES. Entries after “also recorded” stand apart in the source; their conditions may differ.

As for `Cc1cc(C)c(/C=C2\C(=O)Nc3ccccc32)[nH]1` [SU5416], the “Metastases, microvessel formation and apoptosis” value in series [1] is “inhibit the formation of metastases and microvessel formation and increase apoptosis of both tumor cells and tumor endothelial cells”. Also, the Percent full effect is listed as 100% in series [2] (5 μM, stage at treatment 6 hpf, time treated 24 h); 77% in series [2] (5 μM, stage at treatment 15 hpf, time treated 24 h); 60% in series [2] (5 μM, stage at treatment 24 hpf, time treated 6 h); 100% in series [2] (setting [6]); 100% in series [2] (10 μM, stage at treatment 15 hpf, time treated 6 h); 100% in series [2] (setting [7]). This compound also registered a Percent full effect in series [2] (setting [8]) of 100%. For the same compound, in series [2] (10 μM for six hours beginning at 24 hpf, embryo at 30 hpf), the “Disruption of pre-existing intersegmental vessels” value is reported as “A single intersegmental vessel (indicated by arrow) remains”. The Intersegmental vessel formation entry in series [2] (10 μM, embryo at 30 hpf) was “No intersegmental vessels are observed; also recorded: completely blocked intersegmental vessel formation”. Also, the Phenotypic response result in series [2] was “Dorsal aorta, caudal”. In series [2] (comparison SU5416 versus SU6668), the “Recovery time of treated embryos” value is recorded as “required a longer recovery time than those treated with SU6668”. The “Distribution in treated embryos” value in series [2] (difficult to remove even after many hours of soaking in fresh water) is recorded as “highly concentrated in the yolk of treated embryos”. Also, in series [2], the “Concentrations of the compounds required to see these effects (complete block of intersegmental vessel formation)” value amounted to 10 µM. Moreover, the “Blood vessels in the head that form by angiogenesis” value in series [2] is recorded as “blood vessels in the head that form by angiogenesis were not observed”. Moreover, the “Effect on pre-existing blood vessels” value in series [2] is reported as “disrupted pre- existing blood vessels”. Further, the “Migration pattern of VEGFR2 expressing cells toward the midline” value in series [2] is reported as “No difference was observed in the migration pattern of VEGFR2 expressing cells”. The Plasma level in series [3] is 5 µM. For the same compound, in series [4], the “VEGF-induced vascular endothelial cell proliferation” value is recorded as “inhibit VEGF-induced vascular endothelial cell proliferation in vitro”.
Regarding `Cc1[nH]c(/C=C2\C(=O)Nc3ccccc32)c(C)c1CCC(=O)O` [SU6668], the “Metastases, microvessel formation and apoptosis” value in series [1] was “inhibit the formation of metastases and microvessel formation and increase apoptosis of both tumor cells and tumor endothelial cells”. Besides, the Percent full effect in series [2] (setting [6]) is on record as 100%; in series [2] (setting [7]), 100%; in series [2] (setting [8]), 87%; in series [2] (15 μM, stage at treatment 6 hpf, time treated 24 h), 100%; in series [2] (15 μM, stage at treatment 15 hpf, time treated 6 h), 100%; in series [2] (15 μM, stage at treatment 15 hpf, time treated 24 h), 100%. For the same compound, in series [2] (15 μM, stage at treatment 24 hpf, time treated 6 h), the Percent full effect is reported as 100%. In series [2] (15 μM, embryo at 30 hpf), the Intersegmental vessel formation result is on record as “No intersegmental vessels are observed; also recorded: completely blocked intersegmental vessel formation”. For the same compound, the Phenotypic response result in series [2] is given as “Dorsal aorta, caudal”. For the same compound, the “Intersegmental vessels after recovery” value in series [2] (larva at 5 dpf, treated overnight with 15 μM at 2 dpf, recovered 3 days in fresh water, some vessels migrating abnormally) is “Intersegmental vessels are reforming”. Further, in series [2], the “Concentrations of the compounds required to see these effects (complete block of intersegmental vessel formation)” value was 15 µM. Further, the “Blood vessels in the head that form by angiogenesis” value in series [2] is recorded as “blood vessels in the head that form by angiogenesis were not observed”. In addition, the “Effect on pre-existing blood vessels” value in series [2] is “disrupted pre- existing blood vessels”. In addition, in series [2], the “Migration pattern of VEGFR2 expressing cells toward the midline” value is “No difference was observed in the migration pattern of VEGFR2 expressing cells”. Further, in series [4], the “VEGF-induced vascular endothelial cell proliferation” value is “inhibit VEGF-induced vascular endothelial cell proliferation in vitro”.
With `Clc1ccc(Nc2nnc(Cc3ccncc3)c3ccccc23)cc1` [PTK787/ZK222584], in series [5], the “Formation of zebrafish blood vessels” value is on record as “affect the formation of zebrafish blood vessels”.
